For orientation: MIC90 means an inhibitory concentration at the 90% level, which refers to growth in some studies and to a panel of isolates in others. As usually defined, the EC50 is the concentration needed to bring the measured effect to its halfway point. One may read the IC50 as the point on the concentration scale where inhibition reaches its midpoint.

8 compounds from ChEMBL document CHEMBL1909569 (Bioorg Med Chem Lett, 2011) can be followed below.

Data set [1] deals with Mycobacterium tuberculosis. As to the kind of experiment: Antimicrobial activity against non-replicating Mycobacterium tuberculosis after 11 days by luminescence based low oxygen recovery assay. The data set is classed as functional. The following applies: 264 h.
Data set [2] deals with Mycobacterium tuberculosis. Kind of data set: Antimicrobial activity against replicating Mycobacterium tuberculosis after 8 days by micro plate alamar blue assay. It is filed as functional. The following applies: 192 h. For orientation: Resazurin is reduced to fluorescent resorufin, in cell work by metabolically active cells.
Data set [3] concerns the target T1, Nuclear receptor subfamily 1 group I member 2 (Homo sapiens, UniProt O75469).
T1 sequence (O75469 whole entry): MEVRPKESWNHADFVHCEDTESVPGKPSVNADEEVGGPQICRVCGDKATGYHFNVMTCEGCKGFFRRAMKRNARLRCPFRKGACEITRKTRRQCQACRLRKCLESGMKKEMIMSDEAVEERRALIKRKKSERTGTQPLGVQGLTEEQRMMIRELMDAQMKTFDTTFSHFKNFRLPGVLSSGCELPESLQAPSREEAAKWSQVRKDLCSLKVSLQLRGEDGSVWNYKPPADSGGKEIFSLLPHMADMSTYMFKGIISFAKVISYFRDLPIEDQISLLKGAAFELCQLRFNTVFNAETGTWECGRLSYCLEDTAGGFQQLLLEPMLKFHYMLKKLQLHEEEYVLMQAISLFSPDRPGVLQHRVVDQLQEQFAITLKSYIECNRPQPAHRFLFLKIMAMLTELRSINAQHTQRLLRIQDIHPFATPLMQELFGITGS
Kind of data set: (§1) Activation of human PXR in DPX2 cells after 24 hrs by microplate reader relative to control. The data set is classed as ADME, cell-based.

The target of data set [4] is T2, PXR (nuclear receptor subfamily 1 group I member 2) (Homo sapiens, UniProt O75469).
T2 sequence (O75469 whole entry): T1 sequence (O75469 whole entry)
Described as §1. The data set is classed as ADME, cell-based. The following applies: human, DPX2 cells; read-out: FC.

Data set [5] concerns the target T1, Nuclear receptor subfamily 1 group I member 2. Kind of data set: Activation of human PXR in DPX2 cells up to 100 uM after 24 hrs by microplate reader relative to control. It is filed as ADME, cell-based.
The subject of data set [6] is Escherichia coli. As to the kind of experiment: Antimicrobial activity against wild type Escherichia coli DH5[alpha] after 16 to 20 hrs. It is filed as functional.
Data set [7] deals with T3, DNA-directed RNA polymerase subunit beta (Mycobacterium tuberculosis, UniProt P9WGY9).
T3 sequence (P9WGY9 whole entry): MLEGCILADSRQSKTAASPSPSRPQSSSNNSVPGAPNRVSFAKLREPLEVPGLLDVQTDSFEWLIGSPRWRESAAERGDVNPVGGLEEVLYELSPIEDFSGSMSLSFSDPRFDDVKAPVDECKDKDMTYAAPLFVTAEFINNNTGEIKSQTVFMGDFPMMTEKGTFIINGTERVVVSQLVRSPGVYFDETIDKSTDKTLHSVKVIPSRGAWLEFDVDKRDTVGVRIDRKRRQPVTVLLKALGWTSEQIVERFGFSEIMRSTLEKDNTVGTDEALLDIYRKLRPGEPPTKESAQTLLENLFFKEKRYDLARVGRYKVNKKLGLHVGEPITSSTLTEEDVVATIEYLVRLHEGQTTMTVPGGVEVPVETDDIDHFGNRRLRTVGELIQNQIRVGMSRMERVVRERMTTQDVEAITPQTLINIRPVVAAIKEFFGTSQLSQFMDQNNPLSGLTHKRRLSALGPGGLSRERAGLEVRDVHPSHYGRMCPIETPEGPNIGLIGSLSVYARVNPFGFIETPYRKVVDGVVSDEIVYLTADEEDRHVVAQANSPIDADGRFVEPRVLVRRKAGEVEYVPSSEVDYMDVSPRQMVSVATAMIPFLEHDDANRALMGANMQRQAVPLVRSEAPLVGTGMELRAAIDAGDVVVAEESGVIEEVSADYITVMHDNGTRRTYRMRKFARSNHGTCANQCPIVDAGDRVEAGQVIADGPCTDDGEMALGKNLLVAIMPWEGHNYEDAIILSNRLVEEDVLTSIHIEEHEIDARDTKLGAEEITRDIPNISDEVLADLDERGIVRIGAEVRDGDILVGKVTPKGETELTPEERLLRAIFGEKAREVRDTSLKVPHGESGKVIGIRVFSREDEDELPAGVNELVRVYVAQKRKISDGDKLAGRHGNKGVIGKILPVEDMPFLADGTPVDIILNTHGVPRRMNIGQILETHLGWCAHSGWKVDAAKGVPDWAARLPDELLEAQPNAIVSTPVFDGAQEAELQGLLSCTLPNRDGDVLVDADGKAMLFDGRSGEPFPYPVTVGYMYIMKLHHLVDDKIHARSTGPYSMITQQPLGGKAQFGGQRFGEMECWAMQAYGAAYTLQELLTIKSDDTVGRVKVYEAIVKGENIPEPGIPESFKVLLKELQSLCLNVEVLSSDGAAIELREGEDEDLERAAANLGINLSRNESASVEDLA
Kind of data set: (§2) Inhibition of wild type Mycobacterium tuberculosis RNA polymerase after 10 mins using ribo green staining by rolling circle transcription assay.

Data set [8] deals with T4, DNA-directed RNA polymerase subunit beta (Mycobacterium tuberculosis) (UniProt P9WGY9).
T4 sequence (whole entry): T3 sequence (P9WGY9 whole entry)
The data set is described as §2. Details: unit not given here; call rule not given here.

The subject of data set [9] is Escherichia coli. Kind of data set: Antimicrobial activity against Escherichia coli EC2880 mutant after 16 to 20 hrs. It is filed as functional.
For data set [10], the system named is Escherichia coli. As to the kind of experiment: Antimicrobial activity against wild type Escherichia coli TG2 after 16 to 20 hrs. It is filed as functional.
In data set [11] the target is T4, DNA-directed RNA polymerase subunit beta (Mycobacterium tuberculosis). As to the kind of experiment: Ratio of compound IC50 to Rifamycin S IC50 for wild type Mycobacterium tuberculosis RNA polymerase.

Values after ≈ are worked out from the molar mass of the structure shown. Bounds are passed on as bounds.

With `CNc1c(C)c2c3c4c(O)c(/C=N/N5CCN(C)CC5)c(c(O)c14)NC(=O)/C(C)=C\C=C\[C@H](C)[C@H](O)[C@@H](C)[C@@H](O)[C@@H](C)[C@H](OC(C)=O)[C@H](C)[C@@H](OC)/C=C/O[C@@](C)(O2)C3=O`, the MIC90 in data set [1] was greater than 19.1 µM; in data set [2], 4 µM (≈ 3.34 µg/mL). In data set [3], this compound registered a half-maximal effective concentration (EC50) of 4.1 µM. Moreover, in data set [4], the fold induction at 24 h is 8.9.

Consider `CO[C@H]1/C=C/O[C@@]2(C)Oc3c(c4c5c(nn(C)c5c3C)C(=C(/C=N/N3CCN(C)CC3)C4=O)NC(=O)/C(C)=C\C=C\[C@H](C)[C@H](O)[C@@H](C)[C@@H](O)[C@@H](C)[C@H](OC(C)=O)[C@@H]1C)C2=O`, for which the values for the MIC90 in [1] and in data set [2] were greater than 19.3 µM and greater than 4.8 µM, respectively. Moreover, the half-maximal effective concentration (EC50) result in data set [5] is given as “Not Active”.

Take `CO[C@H]1/C=C/O[C@@]2(C)Oc3c(C)c(NC4CCCCCC4)c4c(c3C2=O)C(=O)C=C(NC(=O)/C(C)=C\C=C\[C@H](C)[C@H](O)[C@@H](C)[C@@H](O)[C@@H](C)[C@H](OC(C)=O)[C@@H]1C)C4=O`: the MIC90 in the data set with Escherichia coli [6] was greater than 100 µM; in [1] it was greater than 20.2 µM; against Escherichia coli [9], greater than 12.5 µM; in data set [2], 2.2 µM (≈ 1.74 µg/mL); in the data set on Escherichia coli [10] it was greater than 100 µM. Moreover, inhibition in data set [7] was half-maximal at 15.4 µM (IC50). For the same compound, the logIC50 in data set [8] was found to be 1.19.

Turning to `CO[C@H]1/C=C/O[C@@]2(C)Oc3c(C)c(N(C)C)c4c(c3C2=O)C(=O)C=C(NC(=O)/C(C)=C\C=C\[C@H](C)[C@H](O)[C@@H](C)[C@@H](O)[C@@H](C)[C@H](OC(C)=O)[C@@H]1C)C4=O`, the MIC90 in the data set with Escherichia coli [6] is greater than 100 µM; in data set [1], 5.4 µM (≈ 3.9 µg/mL); in the data set on Escherichia coli [9] it was 12.5 µM (≈ 9.04 µg/mL); in data set [2] it was 1.8 µM (≈ 1.3 µg/mL); against Escherichia coli [10], greater than 100 µM. This compound also returned an IC50 in [7] of 0.503 µM. In [8], this compound yielded a logIC50 of -0.298.

Turning to `CNc1c(C)c2c3c4c1C(=O)C(=C(/C=N/N1CCN(C)CC1)C4=O)NC(=O)/C(C)=C\C=C\[C@H](C)[C@H](O)[C@@H](C)[C@@H](O)[C@@H](C)[C@H](OC(C)=O)[C@H](C)[C@@H](OC)/C=C/O[C@@](C)(O2)C3=O`, the MIC90 in data set [1] was greater than 19.2 µM; in data set [2], 3.64 µM (≈ 3.04 µg/mL). The compound further registered an EC50 in [3] of 2.1 µM. Moreover, the fold induction at 24 h in data set [4] is 6.9.

On to `CO[C@H]1/C=C/O[C@@]2(C)Oc3c(C)c(N)c4c(c3C2=O)C(=O)C=C(NC(=O)/C(C)=C\C=C\[C@H](C)[C@H](O)[C@@H](C)[C@@H](O)[C@@H](C)[C@H](OC(C)=O)[C@@H]1C)C4=O`, for which the MIC90 against Escherichia coli [6] is greater than 100 µM; in data set [1], 22.2 µM (≈ 15.4 µg/mL); against Escherichia coli [9], 12.5 µM (≈ 8.68 µg/mL); in data set [2], 1.41 µM (≈ 0.98 µg/mL); in the data set with Escherichia coli [10], greater than 100 µM. In addition, inhibition in [7] was half-maximal at 4.4 µM (IC50). This compound yielded a logIC50 in [8] of 0.644.

Turning to `CO[C@H]1/C=C/O[C@@]2(C)Oc3c(C)c(OS(=O)(=O)c4ccc(C)cc4)c4c(c3C2=O)C(=O)C=C(NC(=O)/C(C)=C\C=C\[C@H](C)[C@H](O)[C@@H](C)[C@@H](O)[C@@H](C)[C@H](OC(C)=O)[C@@H]1C)C4=O`, the MIC90 with Escherichia coli [6] was greater than 100 µM; in data set [1], 3 µM (≈ 2.55 µg/mL); in the data set on Escherichia coli [9], 3.12 µM (≈ 2.66 µg/mL); in data set [2], 0.2 µM (≈ 0.17 µg/mL); against Escherichia coli [10], greater than 100 µM. Further, the IC50 in data set [7] was 0.021 µM. This compound yielded a logIC50 in data set [8] of -1.68. In data set [11], the Ratio IC50 worked out at 2.

For `CO[C@H]1/C=C/O[C@@]2(C)Oc3c(C)c(SC)c4c(c3C2=O)C(=O)C=C(NC(=O)/C(C)=C\C=C\[C@H](C)[C@H](O)[C@@H](C)[C@@H](O)[C@@H](C)[C@H](OC(C)=O)[C@@H]1C)C4=O`, the MIC90 against Escherichia coli [6] is greater than 100 µM; in data set [1], 1.3 µM (≈ 0.944 µg/mL); with Escherichia coli [9] it was greater than 12.5 µM; in data set [2], 2 µM (≈ 1.45 µg/mL); against Escherichia coli [10], greater than 100 µM. In data set [7], this compound yielded an IC50 of 0.015 µM. This compound gave a logIC50 in [8] of -1.82.
